# According to patent US12516058B2, “Small-molecule compounds for controlling endosomal toll-like receptors and therapeutic agent for autoimmune diseases using same” (priority 2020, dated 2026):
# “Also recorded” adds a separate entry of the source.
# What was measured:
# TLR2/6 = molecular target: T1, TLR2/6 (Mus musculus, UniProt Q9EPW9+Q9QUN7); assay: TNF-α secretion ELISA after FSL-1 in RAW 264.7 cells; format: cell-based
# T1 construct: endogenous in cells; host or cells: RAW 264.7
# Experimental: (§1) In order to determine the inhibitory activities of the test-ligand, RAW 264.7 cells were pretreated with each candidate compound for 1 hour, then treated with Pam3CSK4 (synthetic triacyl lipopeptide; TLR1/2, Invitrogen), FSL-1 (synthetic diacyl lipoprotein, TLR2/6, 100 ng/ml), lipopolysaccharide (LPS, TLR4, Sigma Aldrich), imiquimod (IMQ, TLR7, Invitrogen), and ODN2395 (type C CpG repeat motif DNA oligo(5′-[…]-3), TLR9, Bioneer) ligand for 4 hours, and treated with poly I:C (I:C repeat motif double-stranded RNA, TLR3, Invitrogen) and TL8-506 (TLR8, Invitrogen) showing delayed reactivity for 24 hours. After activation of TLR, the supernatant was diluted in an appropriate ratio so as to measure within the standard dose range, transferred to a pre-coated 96-well assay plate, and then treated with mouse TNF-alpha secretion level in accordance with the manufacturer's instructions using a mouse-TNF-alpha ELISA-kit (Invitrogen).
# (§2) In order to determine the inhibitory activities of SK41, SK50, SK58 and SK64 on various TLR signaling pathways, RAW 264.7 cells were cultured along with each compound and then stimulated with different TLR agonists. The TLR agonists used herein were Pam3CSK4 (TLR1/2), FSL-1 (TLR2/6), LPS (TLR4) and FLA-ST (TLR5) as cell surface TLRs, and poly I:C (TLR3) and TL8-506 (TLR8) as endosomal TLRs.
# [1] = tested on: MRL/lpr (MRL/Fas^lpr) mice; assay: MRL/lpr systemic lupus erythematosus mouse model, oral administration; format: in vivo; details: for change in body weight (index for long-term administration toxicity): daily oral, monitored at 3-day intervals; for antinuclear antibody (ANA) in blood plasma / C3 complement in blood plasma: end of experiment, ELISA, vs vehicle and HCQ 60 mg/Kg; for antinuclear antibody (ANA) in blood plasma: reaches normal as it decreases; for C3 complement in blood plasma: reaches normal as it increases; for visual (apparent) healing effect: oral once a day for 4 weeks, 15 mg/Kg for SK series and HCQ; for visual therapeutic effects: oral once a day, SK series 30 mg/Kg, HCQ 60 mg/Kg
# Experimental: 14-weeks-old, 36-40 g, female MRL/lpr (or MRL/Fas^lpr) mice (purchased from the Jackson Laboratory, USA through Orient Bio) were used for the lupus treatment effect experiment and breeding was performed in accordance with the breeding and ethics regulations of the Laboratory Animal Research Center of the Ajou University Medical Center. Prior to the experiment, 4 to 5 animals were randomly assigned to each of a negative control group (Vehicle), a positive control group (HCQ), and an experimental compound group (SK41, SK50, SK58 and SK64) for blinding, and each of SK41, SK50, SK58, and SK64 compounds was completely dissolved in a vehicle consisting of ethanol (ethyl alcohol) 10%, polyethylene glycol 400 40% and sterile distilled water 50%, and then the solution was orally administered to experimental animals.
# As for the administration method, only the same amount of vehicle was administered to the negative control group, 15-60 MPK (15-60 mg/Kg) of HCQ was administered daily to the positive control group, and SK41, SK50, SK58 and SK64 was administered daily in an amount of 15-30 MPK (15-30 mg/Kg) to the experimental compound group, […] experimental mice were 14 weeks old.
# As for the sample collection method, the weight of the experimental mice was measured at 3-day intervals, and the mice were subjected to inhalational anesthesia and euthanasia using IFRAN liquid (Hana Pharmaceutical, Korea; ingredient name: Isoflurane) on the day of expiry of 40 days, and then blood, kidney, spleen and axillary lymph nodes and inguinal lymph nodes were collected therefrom.
# Blood samples were collected from the heart of an anesthetized mouse, the serum was extracted therefrom using a serum separation tube and a centrifuge (4,000 rpm, 10 minutes, 4° C.), and blood concentrations of ANA (anti-nuclear Antibody, MyBioSourse, USA) as a lupus severity indicator molecule and C3 complement (MyBioSourse, USA), a comprehensive inflammatory indicator molecule, were measured through enzyme-linked immunosorbent assay (ELISA).
# Organs were treated with an RNA stabilization agent (RNA Stabilization Reagent, Germany, QUIAGEN) immediately after extraction to preserve the condition and prepare specimens, the organs were imaged and weighed to determine whether or not the organs are damaged and to measure the degree of immune organ hypertrophy, and the sum of the weights of one pair of axillary lymph nodes and one pair of inguinal lymph nodes was recorded as the weight of the lymph nodes.
# TLR8 = molecular target: T2, TLR8 (Mus musculus, UniProt P58682); assay: TNF-α secretion ELISA after TLR8 agonist TL8-506 in RAW 264.7 cells; format: cell-based; details: SK41, SK50, SK58, SK64
# T2 construct: endogenous in cells; host or cells: RAW 264.7
# T2 sequence (P58682 24-1032): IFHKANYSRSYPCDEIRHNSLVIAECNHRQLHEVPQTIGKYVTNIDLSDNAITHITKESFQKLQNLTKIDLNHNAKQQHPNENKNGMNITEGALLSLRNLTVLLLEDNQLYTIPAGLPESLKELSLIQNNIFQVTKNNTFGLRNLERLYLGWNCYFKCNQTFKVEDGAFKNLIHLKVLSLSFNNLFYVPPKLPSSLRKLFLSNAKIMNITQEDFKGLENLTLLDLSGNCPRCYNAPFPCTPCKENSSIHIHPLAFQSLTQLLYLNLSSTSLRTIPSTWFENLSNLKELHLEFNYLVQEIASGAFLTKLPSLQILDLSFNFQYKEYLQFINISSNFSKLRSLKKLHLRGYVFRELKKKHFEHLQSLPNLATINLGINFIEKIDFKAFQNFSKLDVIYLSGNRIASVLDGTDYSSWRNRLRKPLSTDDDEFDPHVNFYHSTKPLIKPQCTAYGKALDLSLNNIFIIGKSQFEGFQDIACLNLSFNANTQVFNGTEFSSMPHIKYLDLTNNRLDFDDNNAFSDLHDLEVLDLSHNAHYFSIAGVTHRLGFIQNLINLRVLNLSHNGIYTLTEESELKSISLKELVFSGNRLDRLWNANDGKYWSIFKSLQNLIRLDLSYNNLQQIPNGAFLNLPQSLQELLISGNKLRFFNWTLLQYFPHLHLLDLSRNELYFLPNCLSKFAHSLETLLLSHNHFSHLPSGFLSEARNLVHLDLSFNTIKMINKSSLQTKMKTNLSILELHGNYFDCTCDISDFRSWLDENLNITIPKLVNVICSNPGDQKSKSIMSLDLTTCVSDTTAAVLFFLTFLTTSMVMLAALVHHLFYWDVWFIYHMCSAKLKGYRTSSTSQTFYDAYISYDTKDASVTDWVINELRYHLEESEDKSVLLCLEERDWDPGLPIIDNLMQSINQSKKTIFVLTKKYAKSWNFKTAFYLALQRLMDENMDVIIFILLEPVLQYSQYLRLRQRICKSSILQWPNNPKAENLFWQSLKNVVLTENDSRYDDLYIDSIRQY
# Experimental: as §1, §2
# [2] = after administration for 40 days, 30 mg/Kg
# T1 sequence (Q9QUN7 25-784): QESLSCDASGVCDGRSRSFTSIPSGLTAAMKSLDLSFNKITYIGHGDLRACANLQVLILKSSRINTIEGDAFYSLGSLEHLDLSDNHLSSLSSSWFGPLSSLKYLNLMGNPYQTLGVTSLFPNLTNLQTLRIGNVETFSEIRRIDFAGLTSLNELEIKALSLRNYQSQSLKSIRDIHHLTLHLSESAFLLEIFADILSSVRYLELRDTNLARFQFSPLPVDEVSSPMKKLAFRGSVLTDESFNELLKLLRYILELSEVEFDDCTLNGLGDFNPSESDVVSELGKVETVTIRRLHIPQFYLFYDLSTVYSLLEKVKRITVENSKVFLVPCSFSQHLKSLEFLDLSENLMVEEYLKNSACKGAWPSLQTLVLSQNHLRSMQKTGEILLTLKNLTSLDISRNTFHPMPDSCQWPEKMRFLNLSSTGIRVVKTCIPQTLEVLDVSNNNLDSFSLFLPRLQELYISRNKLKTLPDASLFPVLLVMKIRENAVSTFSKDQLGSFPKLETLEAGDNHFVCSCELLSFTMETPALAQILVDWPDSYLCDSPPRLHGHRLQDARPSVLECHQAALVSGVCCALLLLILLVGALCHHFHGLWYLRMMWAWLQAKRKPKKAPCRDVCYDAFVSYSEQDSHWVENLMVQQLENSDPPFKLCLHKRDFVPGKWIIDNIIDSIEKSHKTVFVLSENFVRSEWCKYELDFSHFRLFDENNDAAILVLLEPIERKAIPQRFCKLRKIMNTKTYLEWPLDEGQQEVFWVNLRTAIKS
# T1 sequence (Q9EPW9 28-795): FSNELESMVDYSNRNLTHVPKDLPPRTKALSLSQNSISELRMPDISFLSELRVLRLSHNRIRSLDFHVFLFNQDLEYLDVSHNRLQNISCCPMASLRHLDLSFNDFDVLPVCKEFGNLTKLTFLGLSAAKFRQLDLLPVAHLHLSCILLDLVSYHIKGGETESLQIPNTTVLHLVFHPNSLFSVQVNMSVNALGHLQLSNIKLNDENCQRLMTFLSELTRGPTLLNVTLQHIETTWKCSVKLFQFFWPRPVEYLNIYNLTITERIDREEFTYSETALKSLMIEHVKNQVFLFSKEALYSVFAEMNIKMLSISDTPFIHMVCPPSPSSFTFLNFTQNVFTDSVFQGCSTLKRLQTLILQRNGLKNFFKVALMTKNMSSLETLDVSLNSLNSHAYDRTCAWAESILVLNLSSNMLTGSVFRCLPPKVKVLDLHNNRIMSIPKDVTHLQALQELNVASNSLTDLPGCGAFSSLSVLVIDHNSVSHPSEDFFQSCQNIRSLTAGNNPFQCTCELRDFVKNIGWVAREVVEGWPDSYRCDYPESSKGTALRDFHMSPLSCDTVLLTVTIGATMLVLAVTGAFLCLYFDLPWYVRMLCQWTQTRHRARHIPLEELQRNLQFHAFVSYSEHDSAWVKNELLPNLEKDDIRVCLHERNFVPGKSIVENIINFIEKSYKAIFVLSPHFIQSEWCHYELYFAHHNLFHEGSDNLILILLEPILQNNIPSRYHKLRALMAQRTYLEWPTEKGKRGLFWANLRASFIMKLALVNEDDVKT
Structure (SMILES),inhibitory activity against cell surface TLR2/6 (TNF-α secretion) (TLR2/6),"appearance of the lymph nodes [1, 2]",change in body weight (index for long-term administration toxicity) [1],antinuclear antibody (ANA) in blood plasma [1],C3 complement in blood plasma [1],visual (apparent) healing effect [1],visual therapeutic effects [1],inhibitory activity against endosomal TLR8 (TNF-α secretion) (TLR8),"weight of the lymph node [1, 2]","weight of the spleen [1, 2]"
"Cc1cc2c(N)c3c(nc2n1CCCN(C)C)CCCCCC3 [SK41, 1-(3-(dimethylamino)propyl)-2-methyl-5,6,7,8,9,10-hexahydro-1H-cycloocta[b]pyrrolo[3,2-e]pyridin-4-amine]",did not exhibit a specific inhibitory activity; also recorded: no inhibitory activities,small inguinal lymph node sizes,did not exhibit a change in body weight,significant results,significant results,superior visual (apparent) healing effect to that of HCQ,superior to HCQ,strong inhibitory activity; also recorded: specific inhibitory activities,–,–
"COc1ccc2c(c1)c1c(N)c3c(nc1n2CCCN(C)C)CCCC3 [SK50, 6-(3-(dimethylamino)propyl)-9-methoxy-2,3,4,6-tetrahydro-1H-indolo[2,3-b]quinolin-11-amine]",did not exhibit a specific inhibitory activity; also recorded: no inhibitory activities,–,did not exhibit a change in body weight,–,–,–,–,strong inhibitory activity; also recorded: specific inhibitory activities,–,–
"Cc1ccc2c(c1)c1c(N)c3c(nc1n2CCCN(C)C)CCCC3 [SK58, 6-(3-(dimethylamino)propyl)-9-methyl-2,3,4,6-tetrahydro-1H-indolo[2,3-b]quinolin-11-amine]",did not exhibit a specific inhibitory activity; also recorded: no inhibitory activities,relatively good,did not exhibit a change in body weight,significant results; also recorded: low antinuclear antibody,significant results; also recorded: high C3 complement,superior visual (apparent) healing effect to that of HCQ,superior to HCQ,strong inhibitory activity; also recorded: specific inhibitory activities,relatively less swollen,relatively less swollen
"COC(=O)c1ccc2c(c1)c1c(N)c3c(nc1n2CCCN(C)C)CCCC3 [SK64, Methyl 11-amino-6-(3-(dimethylamino)propyl)-2,3,4,6-tetrahydro-1H-indolo[2,3-b]quinolin-9-carboxylate]",did not exhibit a specific inhibitory activity; also recorded: no inhibitory activities,–,did not exhibit a change in body weight,–,–,–,superior to HCQ,strong inhibitory activity; also recorded: specific inhibitory activities,–,–
